Results reported in article PMC8416343, “A Facile Procedure for One-Pot Stable Conjugation of Two Proglucagon Cysteine-Containing Peptide Analogs” (Frontiers in Endocrinology, 2021).

Experiments:
[1] = Hydrolysis of thiosuccinimide / chemical stability of linker and conjugates, LC-MS; details: for Time to complete hydrolysis of thiosuccinimide: pH 9.6, carbonate-diluted reaction mixture, LC-MS
human GLP-1R = biological target: T1, human GLP-1R (Homo sapiens, UniProt P43220); assay: GLP-1 receptor activation, cAMP response element-luciferase reporter in BHK cells; format: cell-based; details: for Statistical significance of EC50 difference at human GLP-1 receptor: between human GLP-1, peptide 4 and peptide 5, Student's unpaired t-test, n=6; for EC50: stably transfected BHK cells over-expressing human GLP-1R, CRE-luciferase, 3 h at 37°C, assay buffer with 1% ovalbumin, 12-point 3.5-fold dilution, n=6, kind of +/- not stated
T1 construct: expressed in transfected cells; host or cells: BHK cells (stably transfected, with CRE-firefly luciferase reporter)
Procedure: (§1) Receptor activation data was collected utilizing stably transfected BHK cells over-expressing either the human GLP-1R or GcgR and firefly luciferase reporter gene linked to the cAMP response element. The cells were maintained in continuous culture in DMEM supplemented with 10% HI FBS, 300 ug/mL hygromycin, and 500 ug/mL G418 at 37°C with 5% CO2. Cells were plated in the supplemented DMEM at 5,000 cells per well in 96 well poly-D-Lysine coated Corning BioCoat plates and incubated overnight at 37°C with 5% CO2. After the overnight incubation, the media was removed from the cell plates, washed once with DPBS, and 50uL of the assay buffer (DMEM without phenol red, 10 mM Hepes, 1x Glutamax, 1% ovalbumin, and 0.1% Pluronic F-68) was added to the plate. In a separate 96 well plate, the test compounds were serially diluted by 3.5-fold across the row of the plate to create a 12-point dilution curve. […] After the incubation, the assay plates were washed once in DPBS. Following the wash, 100 uL of DPBS was added to each well of the plates followed by 100 uL of the steadylite plus reagent (PerkinElmer). The assay plates were covered to protect from light, incubated at room temperature with shaking at 250 rpm for 30 minutes and read using a microtiter plate reader. The data was plotted using GraphPad Prism 9.0.1 with the nonlinear regression log(agonist) vs. response analysis to obtain the EC50 for each compound. Additionally, GraphPad Prism was used to complete the statistical analysis of the EC50 values with n=6 was using the Student’s unpaired t-test analysis.

human GcgR = biological target: T2, human GcgR (Homo sapiens, UniProt P47871); assay: Glucagon receptor activation, cAMP response element-luciferase reporter in BHK cells; format: cell-based; details: for Statistical significance of EC50 difference at human glucagon receptor: between peptide 4 and peptide 5, Student's unpaired t-test, n=6; for EC50: stably transfected BHK cells over-expressing human GcgR, CRE-luciferase, 3 h at 37°C, assay buffer with 1% ovalbumin, 12-point 3.5-fold dilution, n=6, kind of +/- not stated
T2 construct: expressed in transfected cells; host or cells: BHK cells (stably transfected, with CRE-firefly luciferase reporter)
Procedure: as §1

[2] = test system: human GLP-1 and glucagon receptors; assay: Glucagon and GLP-1 receptor activation, both receptors together (summary statements); format: cell-based; details: heterodimers of glucagon and GLP-1 analogs; conclusion
Procedure: as §1, with “The data was plotted using GraphPad Prism 9.0.1 with the nonlinear regression log(agonist) vs. response analysis to obtain the EC50 for each compound. Additionally, GraphPad Prism was used to complete the statistical analysis of the EC50 values with n=6 was using the Student’s unpaired t-test analysis.” left out

[3] = pH 9.6

T1 sequence (P43220 24-463): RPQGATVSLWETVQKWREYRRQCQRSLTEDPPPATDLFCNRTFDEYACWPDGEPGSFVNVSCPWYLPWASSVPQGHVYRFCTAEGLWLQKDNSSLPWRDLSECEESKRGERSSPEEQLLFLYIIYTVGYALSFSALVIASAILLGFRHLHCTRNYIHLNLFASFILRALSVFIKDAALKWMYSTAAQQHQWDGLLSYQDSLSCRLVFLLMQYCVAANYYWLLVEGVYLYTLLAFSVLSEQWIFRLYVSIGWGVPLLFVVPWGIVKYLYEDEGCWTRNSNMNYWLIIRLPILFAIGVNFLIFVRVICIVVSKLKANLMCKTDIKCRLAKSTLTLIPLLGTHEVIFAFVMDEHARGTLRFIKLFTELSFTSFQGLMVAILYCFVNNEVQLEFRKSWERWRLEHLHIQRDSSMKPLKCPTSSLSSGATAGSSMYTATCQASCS
T2 sequence (P47871 26-477): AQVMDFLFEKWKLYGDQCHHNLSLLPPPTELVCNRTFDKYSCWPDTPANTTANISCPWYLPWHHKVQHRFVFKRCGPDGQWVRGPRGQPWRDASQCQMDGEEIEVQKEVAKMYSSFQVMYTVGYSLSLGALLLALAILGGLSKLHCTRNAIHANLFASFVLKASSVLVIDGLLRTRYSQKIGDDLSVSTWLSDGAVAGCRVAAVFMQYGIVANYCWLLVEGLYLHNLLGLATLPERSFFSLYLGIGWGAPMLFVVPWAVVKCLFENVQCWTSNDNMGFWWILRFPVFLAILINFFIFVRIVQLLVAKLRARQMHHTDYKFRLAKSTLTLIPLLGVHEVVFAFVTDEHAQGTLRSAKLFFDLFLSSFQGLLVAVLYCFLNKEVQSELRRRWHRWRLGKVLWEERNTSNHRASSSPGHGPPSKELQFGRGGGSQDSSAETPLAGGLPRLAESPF

SMILES | Stability of linker ([1]; pH range of 6.0-8.3, compared with the self-hydrolysable maleimido linker) | Statistical significance of EC50 difference at human GLP-1 receptor (human GLP-1R) | Potency in stimulating cAMP at GLP-1 receptors, in words (human GLP-1R; compared with native GLP-1, BHK cells, human GLP-1R) | EC50 (human GLP-1R) [nM] | Thiosuccinimide hydrolysis at pH 8.3 ([1]; pH 8.3, prolonged alkylation time) | Time to complete hydrolysis of thiosuccinimide ([1]; 37°C) [h] | Time to complete hydrolysis of thiosuccinimide ([1]; room temperature) | Potency at human GCG receptor, in words (human GcgR; BHK cells, human GcgR, reduced versus native human glucagon, comparable between peptides 4 and 5) | Statistical significance of EC50 difference at human glucagon receptor (human GcgR) | EC50 (human GcgR) [nM] | GLP-1 receptor activity relative to glucagon [2] | Degradation of the conjugate during hydrolysis [3]
O=C(CI)NCCN1C(=O)C=CC1=O [Linker 1, N-(2-(2,5-dioxo-2,5-dihydro-1H-pyrrol-1-yl)ethyl)-2-iodoacetamide] | enhanced stability | – | – | – | – | – | – | – | – | – | – | –
CC[C@H](C)[C@H](NC(=O)[C@H](Cc1ccccc1)NC(=O)[C@H](CCC(=O)O)NC(=O)[C@H](CCCCN)NC(=O)[C@H](C)NC(=O)[C@H](C)NC(=O)[C@H](CCC(N)=O)NC(=O)[C@H](CCC(=O)O)NC(=O)[C@H](CCC(=O)O)NC(=O)[C@H](CC(C)C)NC(=O)[C@H](Cc1ccc(O)cc1)NC(=O)[C@H](CO)NC(=O)[C@H](CO)NC(=O)[C@@H](NC(=O)[C@H](CC(=O)O)NC(=O)[C@H](CO)NC(=O)[C@@H](NC(=O)[C@H](Cc1ccccc1)NC(=O)[C@@H](NC(=O)CNC(=O)[C@H](CCC(=O)O)NC(=O)C(C)(C)NC(=O)[C@@H](N)Cc1c[nH]cn1)[C@@H](C)O)[C@@H](C)O)C(C)C)C(=O)N[C@@H](C)C(=O)N[C@@H](Cc1c[nH]c2ccccc12)C(=O)N[C@@H](CC(C)C)C(=O)N[C@H](C(=O)N[C@@H](CCCCN)C(=O)NCC(=O)NCC(=O)N1CCC[C@H]1C(=O)N[C@@H](CO)C(=O)N[C@@H](CO)C(=O)NCC(=O)N[C@@H](C)C(=O)N1CCC[C@H]1C(=O)N1CCC[C@H]1C(=O)N1CCC[C@H]1C(=O)N[C@@H](CO)C(=O)N[C@@H](CSCC(=O)NCCN1C(=O)CC(SC[C@H](NC(=O)[C@H](CO)NC(=O)[C@@H]2CCCN2C(=O)[C@@H]2CCCN2C(=O)[C@@H]2CCCN2C(=O)[C@H](C)NC(=O)CNC(=O)[C@H](CO)NC(=O)[C@H](CO)NC(=O)[C@@H]2CCCN2C(=O)CNC(=O)CNC(=O)[C@H](CC(N)=O)NC(=O)[C@H](CCSC)NC(=O)[C@H](CC(C)C)NC(=O)[C@H](Cc2c[nH]c3ccccc23)NC(=O)[C@H](CCC(N)=O)NC(=O)[C@@H](NC(=O)[C@H](Cc2ccccc2)NC(=O)[C@H](CC(=O)O)NC(=O)[C@H](CCC(N)=O)NC(=O)[C@H](C)NC(=O)[C@H](CCCNC(=N)N)NC(=O)[C@H](CCCNC(=N)N)NC(=O)[C@H](CO)NC(=O)[C@H](CC(=O)O)NC(=O)[C@H](CC(C)C)NC(=O)[C@H](Cc2ccc(O)cc2)NC(=O)[C@H](CCCCN)NC(=O)[C@H](CO)NC(=O)[C@H](Cc2ccc(O)cc2)NC(=O)[C@H](CC(=O)O)NC(=O)[C@H](CO)NC(=O)[C@@H](NC(=O)[C@H](Cc2ccccc2)NC(=O)[C@@H](NC(=O)CNC(=O)[C@H](CCC(N)=O)NC(=O)[C@H](CO)NC(=O)[C@@H](N)Cc2c[nH]cn2)[C@@H](C)O)[C@@H](C)O)C(C)C)C(N)=O)C1=O)C(N)=O)C(C)C (stereo partly shown) [Peptide 4] | – | no statistical significance | comparable potency to native GLP-1 | 0.00468 ± 0.00153 | did not result in sufficient thiosuccinimide hydrolysis | ≤ 1 | approximately 12 hours | reduced but comparable potency | no statistical significance | 0.607 ± 0.428 | much enhanced GLP-1 receptor activity relative to glucagon | –
CC[C@H](C)[C@H](NC(=O)[C@H](Cc1ccccc1)NC(=O)[C@H](CCC(=O)O)NC(=O)[C@H](CCCCN)NC(=O)[C@H](C)NC(=O)[C@H](C)NC(=O)[C@H](CCC(N)=O)NC(=O)[C@H](CCC(=O)O)NC(=O)[C@H](CCC(=O)O)NC(=O)[C@H](CC(C)C)NC(=O)[C@H](Cc1ccc(O)cc1)NC(=O)[C@H](CO)NC(=O)[C@H](CO)NC(=O)[C@@H](NC(=O)[C@H](CC(=O)O)NC(=O)[C@H](CO)NC(=O)[C@@H](NC(=O)[C@H](Cc1ccccc1)NC(=O)[C@@H](NC(=O)CNC(=O)[C@H](CCC(=O)O)NC(=O)C(C)(C)NC(=O)[C@@H](N)Cc1c[nH]cn1)[C@@H](C)O)[C@@H](C)O)C(C)C)C(=O)N[C@@H](C)C(=O)N[C@@H](Cc1c[nH]c2ccccc12)C(=O)N[C@@H](CC(C)C)C(=O)N[C@H](C(=O)N[C@@H](CCCCN)C(=O)NCC(=O)NCC(=O)N1CCC[C@H]1C(=O)N[C@@H](CO)C(=O)N[C@@H](CO)C(=O)NCC(=O)N[C@@H](C)C(=O)N1CCC[C@H]1C(=O)N1CCC[C@H]1C(=O)N1CCC[C@H]1C(=O)N[C@@H](CO)C(=O)N[C@@H](CSCC(=O)NCCNC(=O)C(CC(=O)O)SC[C@H](NC(=O)[C@H](CO)NC(=O)[C@@H]1CCCN1C(=O)[C@@H]1CCCN1C(=O)[C@@H]1CCCN1C(=O)[C@H](C)NC(=O)CNC(=O)[C@H](CO)NC(=O)[C@H](CO)NC(=O)[C@@H]1CCCN1C(=O)CNC(=O)CNC(=O)[C@H](CC(N)=O)NC(=O)[C@H](CCSC)NC(=O)[C@H](CC(C)C)NC(=O)[C@H](Cc1c[nH]c2ccccc12)NC(=O)[C@H](CCC(N)=O)NC(=O)[C@@H](NC(=O)[C@H](Cc1ccccc1)NC(=O)[C@H](CC(=O)O)NC(=O)[C@H](CCC(N)=O)NC(=O)[C@H](C)NC(=O)[C@H](CCCNC(=N)N)NC(=O)[C@H](CCCNC(=N)N)NC(=O)[C@H](CO)NC(=O)[C@H](CC(=O)O)NC(=O)[C@H](CC(C)C)NC(=O)[C@H](Cc1ccc(O)cc1)NC(=O)[C@H](CCCCN)NC(=O)[C@H](CO)NC(=O)[C@H](Cc1ccc(O)cc1)NC(=O)[C@H](CC(=O)O)NC(=O)[C@H](CO)NC(=O)[C@@H](NC(=O)[C@H](Cc1ccccc1)NC(=O)[C@@H](NC(=O)CNC(=O)[C@H](CCC(N)=O)NC(=O)[C@H](CO)NC(=O)[C@@H](N)Cc1c[nH]cn1)[C@@H](C)O)[C@@H](C)O)C(C)C)C(N)=O)C(N)=O)C(C)C (stereo partly shown) [Peptide 5] | – | no statistical significance | – | 0.00485 ± 0.00429 | – | – | – | – | no statistical significance | 0.323 ± 0.187 | – | without detectable degradation
